This is an account of results in paper PMC9965125, “New NSAID Conjugates as Potent and Selective COX-2 Inhibitors: Synthesis, Molecular Modeling and Biological Investigation” (Molecules, 2023).

Experiment [1] relates to acetic acid-induced abdominal writhing. Put plainly: acetic acid-induced abdominal writhing assay (peripheral analgesic). It is filed as in vivo, mice. To be noted: for % Inhibition/Protection / Writing Reflex ± SE: 10 mg/kg indomethacin mol equivalent i.p.; for Potency: % inhibition/protection compared to indomethacin; for Writing Reflex ± SE: number of writhing counted for 30 min. The protocol:
Peripheral analgesic testing
Peripheral analgesic activity was measured by the standard acetic acid-induced writhing […]
One hour after intraperitoneally (i,p.) administration of 10 mg kg−1 (mice body weight) […]
distilled/sterile water by the aid of two drops of Tween 80, each mouse was injected with 0.1 ml of 1% acetic acid solution i.p. The control group animals were given sterile/distilled water only with few drops of Tween 80. Starting 5 min after the acetic acid injection, the number of muscular contractions in each mouse was counted for 30 min. A significant reduction in the number of writhing by any test compound as compared to control animals was considered as a positive analgesic response. Percentage protection was calculated according to equ. (3), where n stands for the average number of writhing in the control group and n' is the average number of writhing in the treated group. The % potency was calculated by equ. (4) (Table 2).
% Inhibition/protection = n−n′ x100 … . (3)

The subject of experiment [2] is carrageenan induced paw edema. Put plainly: carrageenan-induced rat paw edema. It is filed as in vivo. To be noted: for anti-inflammatory efficacy (in words): carrageenan-induced rat paw edema; for % Inhibition of Edema ± Standard Error / Mean Edema Thickness: 10 mg/kg indomethacin mol equivalent i.p.; for Mean Edema Thickness: ± standard error. The protocol: Anti-inflammatory activity screening
The anti-inflammatory activity of the tested compounds was determined in-vivo by the acute carrageenan induced paw edema standard method in rats. Adult Wister rats of either sex (pregnant female animals were excluded) weighing 120–150 g were divided into 19 groups of 6 animals each. The tested compounds dissolved in DMSO, at a dose of 10 mg kg-1 (rat body […]
inflammation. The control group was given DMSO only. Paw edema was induced by subcutaneous injection of freshly prepared 1% solution of carrageenan in saline (0.9%, 0.1 ml per rat) into subplantar tissue of the right hind paw of rats. The thickness of the paw was measured (in mm) after successive time intervals (1, 2, 3, 4 and 24 h) and compared with the initial hind paw thickness of each rat for determining the edema thickness. Data were collected, checked, revised and analyzed (SPSS 16). Quantitative variables from normal distribution were expressed as means ± SE “standard error”. The anti-inflammatory activity was expressed as percentage inhibition of edema thickness in treated animals in comparison with the control group according to eqn. (1) […]
% Inhibition of edema= Vc-Vt x 100 … .. (1)
Where, Vc and Vt are the means of edema paw thickness for the control and tested compound treated animal groups, respectively.
The potency of the tested compounds was expressed as % inhibition of edema thickness […]
% Potency = % inhibition of edema for the tested compound treated group x 100 … . (2)
(In general: Carrageenan injected into the paw causes an acute inflammation.)

The subject of the next experiment is hot plate latency. As to the kind of experiment: hot plate assay (central analgesic). The class given is in vivo, mice. To be noted: for % Protection / Latency Period ± SE: 10 mg/kg indomethacin mol equivalent i.p.; for Latency Period ± SE: cutoff 15 sec; for Potency: at 120 min compared to indomethacin. The protocol:
The % potency was calculated by equ. (4) (Table 2). […]
% Potency = % protection of the tested compound x 100 ……. (4) […]
Central analgesic (hot plate) testing
The standard hot plate technique was undertaken by in vivo standard hot plate test [ 1,2]. […]
by placing them on a hot plate maintained at 55 ± 1 °C, 30 min. […]
suspended in sterile/distilled water by the ai d of two drops of Tween 80, and recording the reaction time in seconds for forepaw licking or jumping. The control group animals were given sterile/distilled water only with few drops of Tween 80. The maximum cutoff time was chosen as 15 sec. to prevent tissue damage. Response latencies were measured 30, 60, 90 and 120 min. after the application. The % protection was calculated by equ. ( 5) where, T1, T0 are the latency time mean of the tested compound and control group, respectively (Table 3).

Several values for one entry are separate records, joined by “and”; a condition that tells them apart may be missing. Identical values can stand only once.

Take `COc1ccc2c(c1)c(CC(=O)OCc1cn(-c3ccc(Cl)cc3)nn1)c(C)n2C(=O)c1ccc(Cl)cc1` [Compound 8b, (1-(4-Chlorophenyl)-1H-1,2,3-triazol-4-yl)methyl 2-(1-(4-chlorobenzoyl)-5-methoxy-2-methyl-1H-indol-3-yl)acetate]: the “% Inhibition/Protection” value in experiment [1] stood at 46.3%. The values for the Potency (in experiment [1]; in the experiment with hot plate latency) were 64.5% and 17.2, respectively. In addition, the “Writing Reflex ± SE” value in experiment [1] came out at 21.5 ± 1.5. Also, in experiment [2], the “anti-inflammatory efficacy (in words)” value is “no anti-inflammatory efficacy”. In addition, the “% Protection” value is given as 2.4% in the experiment with hot plate latency (after 30 min), 14.3% with hot plate latency (after 60 min), 11.2% in the experiment with hot plate latency (after 90 min) and 9.7% in the experiment on hot plate latency (after 120 min). Moreover, the “Latency Period ± SE” value in the experiment on hot plate latency (after 30 min) was found to be 6.84 ± 1.4 s; in the experiment with hot plate latency (after 60 min), 8.31 ± 1.9 s; in the experiment on hot plate latency (after 90 min), 9.91 ± 1.7 s; in the experiment on hot plate latency (after 120 min) it was 9.88 ± 2.0 s.
As for `COc1ccc2c(c1)c(CC(=O)OCc1cn(-c3ccccc3Cl)nn1)c(C)n2C(=O)c1ccc(Cl)cc1` [Compound 8a, (1-(2-Chlorophenyl)-1H-1,2,3-triazol-4-yl)methyl 2-(1-(4-chlorobenzoyl)-5-methoxy-2-methyl-1H-indol-3-yl)acetate], in experiment [1], the “% Inhibition/Protection” value came to 49.3%. Moreover, the Potency was 68.7% in experiment [1] and 90.8 in the experiment on hot plate latency. The “Writing Reflex ± SE” value in experiment [1] is given as 20.3 ± 1.8. The “% Inhibition of Edema ± Standard Error” value in experiment [2] (1 h) was 0.00 ± 1.5%; in experiment [2] (2 h) it was 44.9 ± 1.7%; in experiment [2] (3 h, 10 mg/kg), 32.5% and 32.5 ± 1.5%; in experiment [2] (4 h), 26.9 ± 1.1%; in experiment [2] (24 h, 10 mg/kg) it was 33.3% and 33.3 ± 2.4%. Moreover, the “Mean Edema Thickness” value came to 0.863 ± 0.07 mm in experiment [2] (1 h); 0.393 ± 0.08 mm in experiment [2] (2 h); 0.488 ± 0.07 mm in experiment [2] (3 h); 0.521 ± 0.03 mm in experiment [2] (4 h); 0.614 ± 0.09 mm in experiment [2] (24 h). Besides, in experiment [2] (% inhibition of edema thickness relative to indomethacin at 3 h), the “% Potency” value was found to be 40.1%. The “% Protection” value with hot plate latency (after 30 min) is listed as 82.5%; with hot plate latency (after 60 min), 85.8%; with hot plate latency (after 90 min), 55.4%; in the experiment on hot plate latency (after 120 min), 51.3%. Further, the “Latency Period ± SE” value in the experiment with hot plate latency (after 30 min) came to 12.19 ± 1.9 s; in the experiment on hot plate latency (after 60 min) it was 13.51 ± 1.7 s; in the experiment on hot plate latency (after 90 min), 13.85 ± 1.4 s; in the experiment with hot plate latency (after 120 min), 13.63 ± 1.3 s.
For `CC(C)Cc1ccc(C(C)C(=O)OCc2cn(-c3ccc(F)cc3)nn2)cc1` (centres unmarked) [Compound 5c, (1-(4-Fluorophenyl)-1H-1,2,3-triazol-4-yl)methyl 2-(4-isobutylphenyl)propanoate], in experiment [1], the “% Inhibition/Protection” value is recorded as 83.3%. For the same compound, the values for the Potency (in experiment [1]; in the experiment on hot plate latency) were 116.0% and 31.9, respectively. Moreover, the “Writing Reflex ± SE” value in experiment [1] stood at 6.7 ± 0.5. The entries for the “% Inhibition of Edema ± Standard Error” value in experiment [2] (1 h) and in experiment [2] (24 h) were 0.00 ± 1.0% and 0.00 ± 0.2%, respectively. Further, the “% Protection” value is reported as 112.1% in the experiment with hot plate latency (after 30 min); 106.3% in the experiment on hot plate latency (after 60 min); 67.3% in the experiment on hot plate latency (after 90 min); 18% in the experiment on hot plate latency (after 120 min, 10 mg/kg). Besides, the “Latency Period ± SE” value in the experiment with hot plate latency (after 30 min) was 14.17 ± 2.6 s; with hot plate latency (after 60 min) it was 15.0 ± 2.3 s; in the experiment with hot plate latency (after 90 min), 14.91 ± 2.5 s; in the experiment with hot plate latency (after 120 min), 10.63 ± 1.8 s. For the same compound, the “% protection relative to its parent drug ibuprofen” value with hot plate latency (at 30 min) is on record as 1.8 folds.
On to `CC(C)Cc1ccc(C(C)C(=O)OCc2cn(-c3ccc([N+](=O)[O-])cc3)nn2)cc1` (centres unmarked) [Compound 5g, (1-(4-Nitrophenyl)-1H-1,2,3-triazol-4-yl)methyl 2-(4-isobutylphenyl)propanoate], for which, in experiment [1], the “% Inhibition/Protection” value is given as 65.0%. The figures for the Potency (in experiment [1]; in the experiment with hot plate latency) were 90.5% and 49.7, respectively. The “Writing Reflex ± SE” value in experiment [1] is listed as 14.0 ± 1.9. The “% Inhibition of Edema ± Standard Error” value in experiment [2] (1 h) came to 34.0 ± 1.8%; in experiment [2] (24 h), 0.00 ± 0.5%. The “% Protection” value was found to be 87.1% in the experiment on hot plate latency (after 30 min), 73.2% with hot plate latency (after 60 min), 19.0% in the experiment with hot plate latency (after 90 min) and 28.1% in the experiment on hot plate latency (after 120 min). Moreover, the “Latency Period ± SE” value in the experiment on hot plate latency (after 30 min) was found to be 12.5 ± 2.1 s; in the experiment on hot plate latency (after 60 min), 12.59 ± 1.5 s; with hot plate latency (after 90 min) it was 10.60 ± 2.6 s; with hot plate latency (after 120 min) it was 11.54 ± 2.2 s.
Regarding `COc1ccc2c(c1)c(CC(=O)OCc1cn(-c3ccc([N+](=O)[O-])cc3)nn1)c(C)n2C(=O)c1ccc(Cl)cc1` [Compound 8g, (1-(4-Nitrophenyl)-1H-1,2,3-triazol-4-yl)methyl 2-(1-(4-chlorobenzoyl)-5-methoxy-2-methyl-1H-indol-3-yl)acetate], in experiment [1], the “% Inhibition/Protection” value was 96.3%. The Potency is recorded as 134.1% in experiment [1] and 4.8 with hot plate latency. The “Writing Reflex ± SE” value in experiment [1] was 1.5 ± 0.4. Also, the “% Inhibition of Edema ± Standard Error” value is 20.0 ± 0.7% in experiment [2] (1 h) and 0.00 ± 1.2% in experiment [2] (24 h). The “% Protection” value in the experiment on hot plate latency (after 30 min) is 56.6%; in the experiment with hot plate latency (after 60 min), 45.4%; in the experiment with hot plate latency (after 90 min) it was 41.2%; in the experiment with hot plate latency (after 120 min), 2.7%. In addition, the “Latency Period ± SE” value in the experiment on hot plate latency (after 30 min) was 10.46 ± 2.4 s; in the experiment with hot plate latency (after 60 min), 10.57 ± 2.7 s; in the experiment with hot plate latency (after 90 min) it was 12.58 ± 2.0 s; with hot plate latency (after 120 min), 9.25 ± 2.3 s.
As for `COc1ccc(-n2cc(COC(=O)Cc3c(C)n(C(=O)c4ccc(Cl)cc4)c4ccc(OC)cc34)nn2)cc1` [Compound 8f, (1-(4-Methoxyphenyl)-1H-1,2,3-triazol-4-yl)methyl 2-(1-(4-chlorobenzoyl)-5-methoxy-2-methyl-1H-indol-3-yl)acetate], the “% Inhibition/Protection” value in experiment [1] is on record as 66.8%. Also, the Potency in experiment [1] is recorded as 93.0%; with hot plate latency, 117.7. Besides, the “Writing Reflex ± SE” value in experiment [1] amounted to 13.3 ± 1.9. Besides, the “anti-inflammatory efficacy (in words)” value in experiment [2] is “no anti-inflammatory efficacy”. For the same compound, the “% Protection” value in the experiment on hot plate latency (after 30 min) is reported as 66.3%; in the experiment on hot plate latency (after 60 min), 92.4%; in the experiment on hot plate latency (after 90 min), 68.4%; in the experiment on hot plate latency (after 120 min) it was 66.5%. For the same compound, the “Latency Period ± SE” value in the experiment on hot plate latency (after 30 min) was determined as 11.11 ± 1.6 s; in the experiment with hot plate latency (after 60 min), 13.99 ± 1.9 s; in the experiment on hot plate latency (after 90 min), 15.00 ± 2.5 s; in the experiment on hot plate latency (after 120 min) it was 15.00 ± 2.6 s.
